Results from patent US10821123B2, “Use of ribose for treatment of subjects having congestive heart failure” (priority 2016, dated 2020).

What was measured:
[1] = system: mice with chronic pressure overload (ascending aortic constriction); assay: Mouse model of chronic pressure overload (ascending aortic constriction), myocardial remodeling; assay type: in vivo
Description: This remodeling effect was manifested by lower left ventricular dimensions, lower ventricular wall thicknesses, and greater fractional shortening values compared to untreated controls. […] The study consisted of two ribose treated groups (high and low dose) with the high dose treated group responding better than the low dose group compared to untreated controls. The high dose provided D-ribose exposures that were 4-fold greater than observed in the low dose group providing evidence of a dose effect. The once daily, subcutaneous administration of D-ribose was intended to mimic once daily oral dosing in humans. […] Mice were subjected to ascending aortic constriction (AAC) leading to LV hypertrophy followed by severe LV systolic dysfunction and associated heart failure. In this situation, mitochondrial ATP synthesis is reduced and ROS production is increased in association with advancing heart failure. Reduced ATP levels can contribute to progressive loss of cardiac function from increasing energy deficit. Increased ROS can result in oxidation of critical enzymes and a diminished reducing environment, leading to apoptosis and fibrosis, which are aspects of cardiac remodeling. Mice were divided into four groups; Sham controls (same thoracic surgery with no constriction), AAC untreated, and AAC D-ribose treated (high and low dose). D-ribose for injection (5% to 50% weight/volume) was administered at a dose of 25 to 500 mg/kg body weight by subcutaneous or intraperitoneal injection one to four times daily. After initiation of D-ribose treatment, animals in all groups were monitored for progressive heart failure using echocardiography. LV volumes, fractional shortening, and LV wall thicknesses were measured at 10 and 15 weeks. When LV dilation and fractional shortening were sufficiently advanced, animals were subjected to physical function testing using a motorized treadmill. Animals were allowed to recover for one week and their hearts were harvested and evaluated histologically for myocyte hypertrophy and fibrosis.

[2] = system: patients with NYHA Class II to IV heart failure; assay: Remodeling effects in patients with NYHA Class II to IV heart failure taking D-ribose; assay type: in vivo, human; details: 10 to 50 g oral once daily fasted, within 3 months to one year
Procedure: Oral D-ribose powder for solution is administered at a dose of 10 to 50 grams per dose, once daily, fasted (e.g., 3 hours, 4, hours, 5 hours, 6 hours, 7 hours, 8 hours, 9 hours, 10 hours, 11 hours, 12 hours, or more). D-ribose powder for solution is dissolved in 50 to 250 mL of water or clear beverage and consumed within a 15 to 60 minute period. It is preferred that D-ribose be administered fasted. Patients are administered D-ribose for a period of at least two weeks but possibly for the remainder of their lives. Within a period of 3 months to one year, in at least some embodiments, patients taking D-ribose may have a lower Left Ventricular Systolic Volume Index ([…]), a lower Left Ventricular Diastolic Volume Index ([…]), higher Ejection Fractions (EF), higher dP/dtmax values, lower dP/dtmin values, and/or higher cardiac output than patients taking placebo.

[3] = system: patients with acute decompensated heart failure; assay: Dyspnea and/or edema in patients hospitalized for acutely decompensated heart failure; assay type: in vivo, human; details: 10 to 50 g oral once daily fasted
Procedure: Patients admitted to the hospital for acute decompensated heart failure may be given oral D-ribose powder for solution at a dose of 10 to 50 grams per dose, once daily, fasted (e.g., 3 hours, 4, hours, 5 hours, 6 hours, 7 hours, 8 hours, 9 hours, 10 hours, 11 hours, 12 hours, or more). D-ribose powder for solution is dissolved in 50 to 250 mL (preferably 50 mL in this case) of water or clear beverage and consumed within a 15 to 60 minute period. It is preferred that D-ribose be administered to patients that are fasted. Patients are treated until symptoms of dyspnea and fluid overload have stabilized.

[4] = healthy subjects, oral; cited from earlier work
[5] = Safety, tolerability and pharmacokinetics of multiple oral doses of D-ribose solution in subjects with stable chronic heart failure; assay type: in vivo, human
Procedure: Although a morning oral dose of D-ribose (overnight fasting) produced significant blood plasma levels, the mid-day and evening doses produced diminished blood levels similar to that observed in healthy subjects given food immediately prior to dosing, even though D-ribose administration to subjects with stable congestive heart failure occurred over 2 hours after their previous meal.
The safety, tolerability, pharmacokinetics and pharmacodynamics of multiple oral doses of D-ribose solution was studied in 14 subjects with stable, chronic heart failure. It is well known that bolus oral D-ribose can induce a dose-dependent transient hypoglycemia that is preceeded by a transient spike in insulin levels. This can result in symptomatic hypoglycemia in subjects whose blood glucose levels fall sufficiently far. This transient hypoglycemia is the dose limiting side effect of D-ribose treatment, although it is readily overcome by drinking a glass of fruit juice. For this reason, subjects were initially administered a 10 g dose, fasted, followed 5 hours later by a 5 g dose at least 2.5 hours after the end of the previous meal. Subjects that tolerated the 10 g dose completed the remainder of the study at the 10 g dose. […] All subjects tolerated the 10 g dose, so the remainder of the study was conducted using the 10 g dose only. For the next two days, subjects were administered 10 g of D-ribose solution three times daily at 5 hour intervals beginning with a fasted morning dose around 7 a.m. Meals were served two hours after each dose such that the second and third daily doses were administered approximately 2.5 hours after completion of the previous meal. On the third day of dosing, subjects were administered a single dose of chewable tablets containing 16 g of glucose at 0, 30, and 60 minutes post-dose according to a predefined randomization schedule. The purpose of this was to determine whether glucose could attenuate any symptomatic hypoglycemia (if observed), or if it would impact the rate or extent of D-ribose absorption into the blood. Blood levels of D-ribose and insulin were determined at pre-defined time points throughout the study. Blood glucose levels were monitored continuously throughout the study. Four major outcomes emerged from this study. […] This phenomenon was not observed in normal subjects and appears unique to heart failure patients. Lastly, supplemental glucose administered between 0 and 60 minutes post-dose had no effect on D-ribose absorption into the blood.

[6] = system: dogs with pacing-induced heart failure; assay: Canine model of heart failure induced by chronic cardiac pacing, longevity; assay type: in vivo
Description: It has been shown that administration of D-ribose can improve cardiac function in animal models of heart failure. […] Animals treated with once daily, oral D-ribose at a weight equivalent dose of 10 g in a 70 kg human lived 40% longer than placebo animals. It has been hypothesized that D-ribose helps retain cardiac function by maintaining the adenylate pool in cardiomyocytes that are overworked due to underlying heart disease. Supplemental D-ribose can bypass the cell's need to synthesize D-ribose via the pentose phosphate shunt, which can be a rate limiting step to synthesis of ATP in cardiomyocytes by either the salvage or de novo pathways. It has been shown in several studies that D-ribose can enhance the rate of recovery of ATP and other constituents of the adenylate pool in the hearts of animals subjected to hypoxic stress. However, there may be additional benefits to D-ribose treatment in subjects suffering from diminished mitochondrial function in disease states such as coronary artery disease, ischemic heart disease, dilated cardiomyopathy, or other conditions leading to heart failure.
Dogs were surgically implanted with a cardiac pacing device used to induce heart failure through chronic cardiac pacing. In addition, an aortic catheter, coronary sinus catheter (for blood sampling), left ventricular catheter and pressure transducer, left ventricular piezoelectric crystals, and a transonic flow probe in the left circumflex coronary artery were implanted to measure a variety of hemodynamic parameters and to sample coronary venous blood. Subsequent to recovery from surgery, animals were paced for 3 weeks at a rate of 210 beats per minute (bpm) followed by an increased rate of 350 bpm which continued until the animals were deemed to be terminal. Hemodynamic and metabolic measurements were made on a scheduled basis throughout the pacing period. Dogs were treated with 150 mg/kg D-ribose solution orally either once daily (fasted) or three times daily. Placebo dogs were given an equivalent volume of water. D-ribose treatment started 10 days following the start of pacing and continued until the animal was deemed to be terminal. […] However, one significant difference was how long the D-ribose treated animals lived. Dogs treated once daily lived an average of 38.3 days versus 27.3 days for placebo animals (p<0.03). Furthermore, although the group of dogs treated three times daily (tid) with D-ribose consisted of fewer animals than the group of dogs treated once daily, the tid group lived on average 30.5 days, which was not statistically different than placebo animals (p>0.20). […]

[7] = system: patients with NYHA Class II to IV heart failure; assay: Functional improvement in patients with NYHA Class II to IV heart failure taking D-ribose; assay type: in vivo, human; details: 10 to 50 g oral once daily fasted
Procedure: Oral D-ribose powder for solution is administered at a dose of 10 to 50 grams per dose, once daily, fasted (e.g., 3 hours, 4, hours, 5 hours, 6 hours, 7 hours, 8 hours, 9 hours, 10 hours, 11 hours, 12 hours, or more). D-ribose powder for solution is dissolved in 50 to 250 mL of water or clear beverage and is consumed within a 15 to 60 minute period. It is preferred that D-ribose be administered to patients that are fasted. Patients are administered D-ribose for a period of at least two weeks, but possibly for the remainder of their lives.

[8] = high dose AAC D-ribose treated vs AAC control mice, p<0.05
[9] = low dose AAC D-ribose treated vs AAC controls, not statistically significant

SMILES: O=C[C@H](O)[C@H](O)[C@H](O)CO [D-ribose]
- heart weights ([1]; D-ribose treated animals vs untreated controls): heart weights were greater in untreated controls than D-ribose treated animals
- fibrosis by differential staining (tissue sections) [1, 8]: significantly less fibrosis
- myocyte diameters (tissue sections) [1, 8]: significantly smaller
- left ventricular fractional shortening (echocardiography) ([1]; high dose AAC D-ribose treated vs AAC controls, p<0.01): significantly lower degree of remodeling
- left ventricular dimensions (echocardiography) ([1]; high dose AAC D-ribose treated vs AAC controls, p<0.01 at systole, p=0.01 at diastole): significantly lower degree of remodeling
- total wall thickness (echocardiography) ([1]; high dose AAC D-ribose treated vs AAC controls, p<0.03): significantly lower degree of remodeling
- left ventricular dimensions (echocardiography) [1, 9]: numerical improvements
- left ventricular fractional shortening (echocardiography) [1, 9]: numerical improvements
- total wall thickness (echocardiography) ([1]; low dose AAC D-ribose treated vs AAC controls, p<0.04): statistically significant
- D-ribose exposure, high dose relative to low dose group ([1]; mice, once daily subcutaneous dose): 4 fold
- LVESVI, LVEDVI, EF, dP/dtmax, dP/dtmin, cardiac output vs placebo [2]: may have a lower Left Ventricular Systolic Volume Index (LVESVI)
- symptoms of dyspnea vs patients taking diuretics only [3]: may exhibit reduced symptoms of dyspnea within a significantly shorter timeframe
- absorption relative to metabolism [4]: absorbed faster than it is metabolized
- blood levels after administration immediately following meals vs after fasting [4]: greatly reduced
- dose proportionality of blood levels [4]: increase more than proportionally with increasing dose
- episodes of symptomatic hypoglycemia ([5]; 10 g bolus oral dose, even with fasted doses): no episodes of symptomatic hypoglycemia
- tolerability ([5]; 10 g bolus oral dose, subjects with stable chronic heart failure): well tolerated
- effect of supplemental glucose on D-ribose absorption into the blood ([5]; 16 g glucose chewable tablets at 0, 30 or 60 minutes post-dose): no effect
- share of non-fasted doses with blood levels less than 15% of a 10 g fasted dose ([5]; oral 10 g mid-day and evening doses): 30%
- blood levels from mid-day and evening doses relative to 10 g fasted morning dose ([5]; oral 10 g, approximately 2.5 hours after previous meal): roughly 40%
- mean blood level exposure of mid-day 5 g dose, lower than 10 g fasted morning dose ([5]; oral, 5 g mid-day dose at least 2.5 hours after previous meal vs 10 g fasted morning dose): 30 fold
- hemodynamics or other metabolic measures vs placebo ([6]; 150 mg/kg oral D-ribose treated dogs): no significant differences
- average survival time ([6]; 150 mg/kg oral once daily (fasted), p<0.03 vs placebo (27.3 days)): 38.3 days
- average survival time ([6]; 150 mg/kg oral three times daily (tid), p>0.20 vs placebo, not statistically different): 30.5 days
- longer life than placebo animals ([6]; once daily oral dose equivalent to 10 g in a 70 kg human): 40%
- sub-maximal (Six Minute Walk Test) or maximal (CPX) exercise capacity [7]: may exhibit improved sub-maximal exercise capacity
- assessments of fatigue, dyspnea, edema, Global Clinical Status and other outcomes ([7]; within 3 months to one year, vs patients not taking D-ribose): may show improved assessments
